System: 171881-019-R-J1-PDC tumor spheroids, viability
Experiment: Anticancer human tumor 171881-019-R-J1-PDC patient-derived invasive breast carcinoma cell line growth inhibition [GQUAD]
Conditions: spheroids with HUVEC and MSC; for IC50: curve of first compound; for viability, T/C: stronger effect = lower value
Summary of the method: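 Viability of tumor cells grown as complex spheroids with endothelial and stromal cells, exposed to drug combinations. Top concentration at or near clinical Cmax (else 10 microM), diluted in half-log increments.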

[1] = second compound 0.0316 µM, first compound 0.0316 µM
[2] = second compound 0.0316 µM, first compound 0.1 µM
[3] = second compound 0.0316 µM, first compound 0.316 µM
[4] = second compound 0.0316 µM, first compound 1 µM
[5] = second compound 0.0316 µM, first compound 3.16 µM
[6] = second compound 0.0316 µM, first compound 10 µM
[7] = second compound 0.1 µM, first compound 0.0316 µM
[8] = second compound 0.1 µM, first compound 0.1 µM
[9] = second compound 0.1 µM, first compound 0.316 µM
[10] = second compound 0.1 µM, first compound 1 µM
[11] = second compound 0.1 µM, first compound 3.16 µM
[12] = second compound 0.1 µM, first compound 10 µM
[13] = second compound 0.316 µM, first compound 0.0316 µM
[14] = second compound 0.316 µM, first compound 0.1 µM
[15] = second compound 0.316 µM, first compound 0.316 µM
[16] = second compound 0.316 µM, first compound 1 µM
[17] = second compound 0.316 µM, first compound 3.16 µM
[18] = second compound 0.316 µM, first compound 10 µM
[19] = second compound 1 µM, first compound 0.0316 µM
[20] = second compound 1 µM, first compound 0.1 µM
[21] = second compound 1 µM, first compound 0.316 µM
[22] = second compound 1 µM, first compound 1 µM
[23] = second compound 1 µM, first compound 3.16 µM
[24] = second compound 1 µM, first compound 10 µM
[25] = second compound 3.16 µM, first compound 0.0316 µM
[26] = second compound 3.16 µM, first compound 0.1 µM
[27] = second compound 3.16 µM, first compound 0.316 µM
[28] = second compound 3.16 µM, first compound 1 µM
[29] = second compound 3.16 µM, first compound 3.16 µM
[30] = second compound 3.16 µM, first compound 10 µM
[31] = second compound 10 µM, first compound 0.0316 µM
[32] = second compound 10 µM, first compound 0.1 µM
[33] = second compound 10 µM, first compound 0.316 µM
[34] = second compound 10 µM, first compound 1 µM
[35] = second compound 10 µM, first compound 3.16 µM
[36] = second compound 10 µM, first compound 10 µM
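Wherever viability, T/C is given: 100% = DMSO vehicle control viability.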

## CCCS(=O)(=O)Nc1ccc(F)c(C(=O)c2c[nH]c3ncc(-c4ccc(Cl)cc4)cc23)c1F + CN(C)c1ccc(Nc2c3ccc(NC(=O)CCN4CCCC4)cc3nc3cc(NC(=O)CCN4CCCC4)ccc23)cc1
Second compound 0.0316 µM
  IC50: 9820 nM
Second compound 0.1 µM
  IC50: 9480 nM
Second compound 0.316 µM
  IC50: 3260 nM
Second compound 1 µM
  IC50: < 31.6 nM
Second compound 3.16 µM
  IC50: < 31.6 nM
Second compound 10 µM
  IC50: < 31.6 nM
[1]
  viability, T/C: 99.8%
[2]
  viability, T/C: 108%
[3]
  viability, T/C: 102%
[4]
  viability, T/C: 116%
[5]
  viability, T/C: 93.7%
[6]
  viability, T/C: 49.2%
[7]
  viability, T/C: 76.9%
[8]
  viability, T/C: 100%
[9]
  viability, T/C: 84.2%
[10]
  viability, T/C: 104%
[11]
  viability, T/C: 94.5%
[12]
  viability, T/C: 47.9%
[13]
  viability, T/C: 43.8%
[14]
  viability, T/C: 53.4%
[15]
  viability, T/C: 55.8%
[16]
  viability, T/C: 44.1%
[17]
  viability, T/C: 56.2%
[18]
  viability, T/C: 25.8%
[19]
  viability, T/C: 5.16%
[20]
  viability, T/C: 3.85%
[21]
  viability, T/C: 4.58%
[22]
  viability, T/C: 3.58%
[23]
  viability, T/C: 3.49%
[24]
  viability, T/C: 3.08%
[25]
  viability, T/C: 0.35%
[26]
  viability, T/C: 0.31%
[27]
  viability, T/C: 0.72%
[28]
  viability, T/C: 0.43%
[29]
  viability, T/C: 0.5%
[30]
  viability, T/C: 0.53%
[31]
  viability, T/C: 0.11%
[32]
  viability, T/C: 0.23%
[33]
  viability, T/C: 0.24%
[34]
  viability, T/C: 0.32%
[35]
  viability, T/C: 0.57%
[36]
  viability, T/C: 0.3%

## Nc1ccn(C2OC(CO)C(O)C2(F)F)c(=O)n1 (stereo unspecified) + CN(C)c1ccc(Nc2c3ccc(NC(=O)CCN4CCCC4)cc3nc3cc(NC(=O)CCN4CCCC4)ccc23)cc1
Second compound 0.0316 µM
  IC50: < 31.6 nM
Second compound 0.1 µM
  IC50: < 31.6 nM
Second compound 0.316 µM
  IC50: < 31.6 nM
Second compound 1 µM
  IC50: < 31.6 nM
Second compound 3.16 µM
  IC50: < 31.6 nM
Second compound 10 µM
  IC50: < 31.6 nM
[1]
  viability, T/C: 35.4%
[2]
  viability, T/C: 35.6%
[3]
  viability, T/C: 44.6%
[4]
  viability, T/C: 51%
[5]
  viability, T/C: 45.9%
[6]
  viability, T/C: 47.7%
[7]
  viability, T/C: 33.7%
[8]
  viability, T/C: 38%
[9]
  viability, T/C: 46.6%
[10]
  viability, T/C: 53%
[11]
  viability, T/C: 45.6%
[12]
  viability, T/C: 46%
[13]
  viability, T/C: 33%
[14]
  viability, T/C: 36%
[15]
  viability, T/C: 39.9%
[16]
  viability, T/C: 38.5%
[17]
  viability, T/C: 47.2%
[18]
  viability, T/C: 38.4%
[19]
  viability, T/C: 12.5%
[20]
  viability, T/C: 8.63%
[21]
  viability, T/C: 13.7%
[22]
  viability, T/C: 11.8%
[23]
  viability, T/C: 15%
[24]
  viability, T/C: 16.6%
[25]
  viability, T/C: 2.29%
[26]
  viability, T/C: 1.62%
[27]
  viability, T/C: 2.47%
[28]
  viability, T/C: 1.2%
[29]
  viability, T/C: 2.41%
[30]
  viability, T/C: 2.49%
[31]
  viability, T/C: 0.27%
[32]
  viability, T/C: 0.9%
[33]
  viability, T/C: 0.82%
[34]
  viability, T/C: 0.47%
[35]
  viability, T/C: 1.36%
[36]
  viability, T/C: 0.37%

## CC[C@@]1(O)C(=O)OCc2c1cc1n(c2=O)Cc2cc3c(CN(C)C)c(O)ccc3nc2-1 + CN(C)c1ccc(Nc2c3ccc(NC(=O)CCN4CCCC4)cc3nc3cc(NC(=O)CCN4CCCC4)ccc23)cc1
Second compound 0.0316 µM
  IC50: 255 nM
Second compound 0.1 µM
  IC50: 251 nM
Second compound 0.316 µM
  IC50: 189 nM
Second compound 1 µM
  IC50: < 0.999 nM
Second compound 3.16 µM
  IC50: < 0.999 nM
Second compound 10 µM
  IC50: < 0.999 nM
Second compound 0.0316 µM, first compound 0.000999 µM
  viability, T/C: 110%
Second compound 0.0316 µM, first compound 0.00316 µM
  viability, T/C: 108%
Second compound 0.0316 µM, first compound 0.00999 µM
  viability, T/C: 105%
[1]
  viability, T/C: 99.5%
Second compound 0.0316 µM, first compound 0.0999 µM
  viability, T/C: 57.8%
[3]
  viability, T/C: 48.3%
Second compound 0.1 µM, first compound 0.000999 µM
  viability, T/C: 110%
Second compound 0.1 µM, first compound 0.00316 µM
  viability, T/C: 112%
Second compound 0.1 µM, first compound 0.00999 µM
  viability, T/C: 93.9%
[7]
  viability, T/C: 115%
Second compound 0.1 µM, first compound 0.0999 µM
  viability, T/C: 61.9%
[9]
  viability, T/C: 47%
Second compound 0.316 µM, first compound 0.000999 µM
  viability, T/C: 85%
Second compound 0.316 µM, first compound 0.00316 µM
  viability, T/C: 85.3%
Second compound 0.316 µM, first compound 0.00999 µM
  viability, T/C: 63.3%
[13]
  viability, T/C: 70.7%
Second compound 0.316 µM, first compound 0.0999 µM
  viability, T/C: 60.6%
[15]
  viability, T/C: 42.4%
Second compound 1 µM, first compound 0.000999 µM
  viability, T/C: 23.9%
Second compound 1 µM, first compound 0.00316 µM
  viability, T/C: 14.9%
Second compound 1 µM, first compound 0.00999 µM
  viability, T/C: 17.4%
[19]
  viability, T/C: 11.6%
Second compound 1 µM, first compound 0.0999 µM
  viability, T/C: 10.3%
[21]
  viability, T/C: 14.4%
Second compound 3.16 µM, first compound 0.000999 µM
  viability, T/C: 2.23%
Second compound 3.16 µM, first compound 0.00316 µM
  viability, T/C: 1.91%
Second compound 3.16 µM, first compound 0.00999 µM
  viability, T/C: 2.49%
[25]
  viability, T/C: 1.45%
Second compound 3.16 µM, first compound 0.0999 µM
  viability, T/C: 2.03%
[27]
  viability, T/C: 1.84%
Second compound 10 µM, first compound 0.000999 µM
  viability, T/C: 0.21%
Second compound 10 µM, first compound 0.00316 µM
  viability, T/C: 1.05%
Second compound 10 µM, first compound 0.00999 µM
  viability, T/C: 0.53%
[31]
  viability, T/C: 0.24%
Second compound 10 µM, first compound 0.0999 µM
  viability, T/C: 0.6%
[33]
  viability, T/C: 0.58%

From PubChem BioAssay AID2060498 (Molecular Pharmacology Branch, DTP, NCI, 2025)
